Measurements: US9750248B2, “Synergistic fungicidal compositions” (Dow AgroSciences LLC, priority 2012, dated 2017)

How the values were obtained:
Assay type in all cases: in vivo
[1] = system: Septoria tritici (SEPTTR); test: Control of wheat leaf blotch, one-day protective (1DP) application, greenhouse; settings: for B % DC: component B alone; for A % DC: component A alone
Experimental: (§1) For the mixture studies with compound of Formula I: Treatments consisted of fungicides, including a compound of Formula I, tebuconazole, propiconazole, metconazole, and cyproconazole, applied either individually or as two-way mixtures with a compound of Formula I. Technical grades of materials were dissolved in acetone to make stock solutions which were used to perform three-fold dilutions in acetone for each individual fungicide component or for the two-way mixtures. Desired fungicide rates were obtained after mixing dilutions with nine volumes of water containing 110 parts per million (ppm) Triton X-100. The fungicide solutions (10 milliliters (mL)) were applied onto six pots of plants using an automated booth sprayer, which utilized two 6218-1/4 JAUPM spray nozzles operating at 20 pounds per square inch (psi) set at opposing angles to cover both leaf surfaces. All sprayed plants were allowed to air dry prior to further handling. Control plants were sprayed in the same manner with a solvent blank.
(§2) For the one-day protectant experiments, the plants were inoculated with an aqueous spore suspension of the pathogen of interest (either PUCCRT or SEPTTR) and then placed in a dew room from 1-3 days to allow for infection to occur. The plants were then placed in the greenhouse for symptom development to occur. In the case of PUCCRT, symptoms typically appeared in 7-10 days while for SEPTTR symptoms typically appeared in 25-30 days.
(§3) When disease severity reached 50-100% on the control plants, infection levels were assessed on treated plants visually and scored on a scale of 0 to 100 percent. The percentage of disease control was then calculated using the ratio of disease on treated plants relative to control plants.
(§4) The Colby equation was used to determine the fungicidal effects expected from the mixtures. (See Colby, S. R. Calculation of the synergistic and antagonistic response of herbicide combinations, Weeds 1967, 15, 20-22.). More specifically, in Tables 1-5, Colby's equation was used to calculate the expected activity of mixtures containing two active ingredients, A and B: Expected=A+B−(A×B/100), wherein

[2] = system: Puccinia recondita-tritici (PUCCRT); test: Control of wheat brown rust, one-day protective (1DP) application, greenhouse; settings: for B % DC: component B alone; for A % DC: component A alone
Experimental: as §1, §2, §3, §4

[3] = system: Puccinia recondita-tritici (PUCCRT); test: Control of wheat brown rust, three-day curative (3DC) application, greenhouse; settings: for B % DC: component B alone; for A % DC: component A alone
Experimental: as §1
(§5) For the three-day curative experiments, plants were inoculated with an aqueous spore suspension of the pathogen of interest (either PUCCRT or SEPTTR) and then placed in a dew room from 1-3 days to allow for infection to occur. The plants were removed from the dew room, allowed to dry for approximately one hour (h), sprayed with the test materials formulated as described above, and then placed in the greenhouse for symptom development to occur as described previously.
as §3, §4

[4] = system: Septoria tritici (SEPTTR); test: Control of wheat leaf blotch, three-day curative (3DC) application, greenhouse; settings: for B % DC: component B alone; for A % DC: component A alone
Experimental: as §1, §5, §3, §4

[5] = system: Puccinia recondita-tritici (PUCCRT); test: Control of wheat brown rust in a field research trial; settings: for B % DC: component B alone
Experimental: as §4
The field trial was conducted at the Dow AgroSciences field station located at Mogi Mirim, Brazil. There were four replicate plots per treatment, with each plot 2×3.5 meters in length and width. The plots were sprayed with the treatments twice, once at growth stage BBCH 33 and again at growth stage BBCH 61-65. Treatments were applied with spray volumes of 150 liters/hectare (L/ha) with an XR flat fan nozzle. Disease development relied on natural inoculum (no artificial infestation). Ten plants per plot were used for each disease severity assessment, with all leaves per plant used for the assessment.

SMILES | B % DC ([1]; 0.1 ppm) | B % DC ([1]; 1.6 ppm) | B % DC ([2]; 0.1 ppm) | B % DC ([2]; 1.6 ppm) | B % DC ([2]; 6.3 ppm) | B % DC ([3]; 1.6 ppm) | B % DC ([4]; 0.1 ppm) | B % DC ([1]; 0.4 ppm) | B % DC ([2]; 0.4 ppm) | B % DC ([3]; 0.4 ppm) | also measured
CCCC1COC(Cn2cncn2)(c2ccc(Cl)cc2Cl)O1 (centres unmarked) [Propiconazole, 1-[[2-(2,4-dichlorophenyl)-4-propyl-1,3-dioxolan-2-yl]methyl]-1H-1,2,4-triazole] | 0% | 29% | 0% | 0% | 0% | 2% |  |  |  |  | B % DC ([1]; 6.3 ppm): 68%; B % DC ([3]; 6.3 ppm): 93%
CC(C1CC1)C(O)(Cn1cncn1)c1ccc(Cl)cc1 (stereo not drawn) [Cyproconazole, α-(4-chlorophenyl)-α-(1-cyclopropylethyl)-1H-1,2,4-triazole-1-ethanol] |  | 19% | 0% | 27% | 57% |  | 44.0% | 9% | 0% | 82% | B % DC ([5]; 40 g ai/ha): 38%
COc1ccnc(C(=O)N[C@H]2COC(=O)[C@H](Cc3ccccc3)[C@@H](OC(=O)C(C)C)[C@H](C)OC2=O)c1OCOC(=O)C(C)C [Cmpd I, (3S,6S,7R,8R)-8-benzyl-3-(3-((isobutyryloxy)methoxy)-4-methoxypicolinamido)-6-methyl-4,9-dioxo-1,5-dioxonan-7-yl isobutyrate] |  |  |  |  |  |  |  |  |  |  | A % DC ([4]; 0.1 ppm): 45.3%; A % DC ([4]; 1.6 ppm): 55.2%; A % DC ([4]; 6.3 ppm): 70.1%; A % DC ([1]; 0.1 ppm): 7%; A % DC ([1]; 0.4 ppm): 19%; A % DC ([1]; 1.6 ppm): 53%; A % DC ([2]; 0.4 ppm): 0%; A % DC ([2]; 1.6 ppm): 19.6%; A % DC ([2]; 6.3 ppm): 85.5%; A % DC ([5]; component A alone, 150 g ai/ha): 34.1%; A % DC ([3]; 0.1 ppm): 0%; A % DC ([3]; 0.4 ppm): 0%; A % DC ([3]; 1.6 ppm): 0%; A % DC ([3]; 6.3 ppm): 0%
CC1(C)CCC(Cc2ccc(Cl)cc2)C1(O)Cn1cncn1 (centres unmarked) [Metconazole, 5-[(4-chlorophenyl)methyl]-2,2-dimethyl-1-(1H-1,2,4-triazol-1-ylmethyl)cyclopentanol] | 9% |  |  | 8% | 87% |  |  |  | 0% | 4% | 
CC(C)(C)C(O)(CCc1ccc(Cl)cc1)Cn1cncn1 (stereo not drawn) [Tebuconazole, α-[2-(4-chlorophenyl)ethyl]-α-(1,1-dimethylethyl)-1H-1,2,4-triazole-1-ethanol] |  | 34% | 0% | 18% | 82% | 87% | 23.0% | 0% | 0% | 2% | B % DC ([5]; 140 g ai/ha): 74.3%
COC(=O)N(OC)c1ccccc1COc1ccn(-c2ccc(Cl)cc2)n1 [Pyraclostrobin, pyraclostrobin] |  |  |  |  |  |  |  |  |  |  | B % DC ([5]; 60 g ai/ha): 85.8%
